Data from patent publication US20220023172A1, “COSMETIC COMPOSITIONS AND METHODS OF USE” (STC.UNM, priority 2018, published 2022).

melting point	Compound
79 to 81 °C	Fc1ccc(F)c(/C=C/c2ccccc2F)c1
34 to 35 °C	COc1ccccc1/C=C/c1ccccc1F
58 to 59 °C	COc1ccc(OC)c(/C=C/c2ccc(F)cc2)c1
73 to 74 °C	COc1ccc(/C=C/c2ccc(F)c(F)c2)cc1
60 to 61 °C	Fc1cccc(/C=C/c2ccc(F)cc2F)c1
38 to 40 °C	COc1cccc(/C=C/c2ccc(C)cc2)c1OC
50 to 51 °C	COc1cccc(/C=C/c2ccc(F)cc2)c1OC
109 to 110 °C	COc1ccc(/C=C/c2cc(F)ccc2F)cc1
48 to 49 °C	Fc1cccc(/C=C/c2ccc(F)c(F)c2)c1
49 to 50 °C	COc1cccc(/C=C/c2ccccc2OC)c1
72 to 73 °C	Cc1ccc(/C=C/c2ccc(F)cc2F)cc1
85 to 86 °C	Fc1ccc(/C=C/c2ccccc2F)cc1F
48 to 49 °C	COc1cccc(/C=C/c2cc(OC)ccc2OC)c1
67 to 69 °C	COc1cccc(/C=C/c2ccc(C(F)(F)F)cc2)c1OC
76 to 77 °C	Fc1ccc(/C=C/c2cc(F)ccc2F)cc1
90 to 92 °C	Cc1ccc(/C=C/c2ccc(F)c(F)c2)cc1
73 to 74 °C	Fc1cccc(/C=C/c2cc(F)ccc2F)c1
84 to 85 °C	Fc1ccc(/C=C/c2ccccc2F)c(F)c1
